Where “and” joins values, the source holds several entries; their conditions need not be identical. Equal entries are not always repeated. Where two headings read alike, the source gives them in different places.
How the values were obtained:
[1] = test system: S. mutans; assay: MIC against S. mutans; format: cell-based; conditions: Streptococcus mutans
Description: (§1) Minimum inhibitory concentration (MIC) assays for the antibacterial activities of the compounds were performed according to the standard […] method of the Clinical and Laboratory Standards Institute of America. MIC testing of drug-resistant S. pneumoniae, drug-resistant S. aureus, streptococci and antimicrobial combination was also performed using the same method. Briefly, the drugs were serially diluted 2-fold into eight wells with C+Y medium, yielding final concentrations ranging from […]. Then 10^6 CFU bacteria were added to each well. Inoculated medium containing 1% DMSO served as a bacterial growth control, whereas uninoculated medium served as a sterility control. The plates were incubated at 37°C for 12–16 h. […] The experiment was repeated three times.

[2] = test system: S. pneumoniae NCTC7466; assay: Mouse sepsis model, survival time; format: in vivo, BALB/c mice; conditions: i.p. infection 1 × 10^3 CFU, drug i.p. thrice a day for 3 d, untreated control 28.8 ± 1.25
Description: Female BALB/c mice (12–15 per group) aged 4–6 weeks were used to evaluate the antimicrobial effects of the compounds in vivo. In sepsis models, the mice were intraperitoneally infected with 100 μL S. pneumoniae NCTC7466 strain suspension (1 × 10^3 CFU). […] Two control groups were injected with 100 μL 1% DMSO (dissolved the drugs, negative control) or PEN (0.42 mg/kg/d, positive control) following the same injection route. The result was expressed as cumulative survival times following 7 d of observation.

[3] = test system: S. pneumoniae; assay: Checkerboard test with erythromycin or tetracycline against S. pneumoniae; format: cell-based, Streptococcus pneumoniae
Description: The antimicrobial effects of different combinations of two antimicrobial agents were assayed using the checkerboard test (Bajaksouzian et al., [1997]). Each experiment was repeated thrice. […] The FIC index (FICI) was calculated using the following formula:
(§2) (2) FIC=FICA+FICB=[A]/MICA+[B]/MICB
(§3) where [A] and [B] are the concentrations of drugs A and B, respectively; MICA and FICA are the MIC and FIC of drug A for the organism, respectively; and MICB, and FICB are the MIC and FIC of drug B for the organism, respectively. The FIC index obtained was interpreted as follows: =0.5, synergy; FIC > 2.0, antagonism (Gupta and Kohli, [2003]).

[4] = Cytotoxicity assay (MTT); format: cell-based; conditions: African green monkey
Description: The cytotoxicity of the drugs to Vero cells (African green monkey kidney cells) was detected as previously described (Huang et al., [2012]) with minor modifications. In 96-well cell culture plates, the cells (~10^3 cells per well) were exposed to the serially diluted drugs for 48 h. Then, relative cell numbers were assayed by co-incubation with 3-(4, 5-dimethylthiazol-2-yl)-2, 5-diphenyltetrazolium bromide for 4 h at 37°C in 5% CO2. Purple formazan salts were dissolved with DMSO after incubation. The absorbance of each well was measured at 595 nm and then converted to percentages of the control (cells treated with 1% DMSO). The concentration of the derivatives with 50% cytotoxicity for Vero cells (CC50) was calculated using GraphPad Prism 5 (San Diego, CA).

[5] = test system: pneumococcal strains; assay: MIC against clinical pneumococcal strains (penicillin susceptible, intermediate, resistant); format: cell-based, Streptococcus pneumoniae; conditions: for MIC50 / MIC90: Streptococcus pneumoniae
Description: as §1

[6] = test system: S. pseudopneumoniae; assay: MIC against S. pseudopneumoniae; format: cell-based; conditions: Streptococcus pseudopneumoniae
Description: as §1

[7] = test system: S. pneumoniae NCTC7466; assay: MIC against S. pneumoniae NCTC7466 (D39); format: cell-based; conditions: Streptococcus pneumoniae
Description: as §1

[8] = test system: S. pyogenes; assay: MIC against S. pyogenes; format: cell-based; conditions: Streptococcus pyogenes
Description: as §1

[9] = target: T1, full-length VicK protein (Streptococcus pneumoniae, UniProt Q8DPL8); assay: Inhibition assay for ATPase activity of VicK (Kinase-Glo Luminescent Kinase Assay); format: biochemical; conditions: 6 μg VicK, 5 μM ATP
T1 construct: 6 His; made in house
T1 sequence (Q8DPL8 whole entry): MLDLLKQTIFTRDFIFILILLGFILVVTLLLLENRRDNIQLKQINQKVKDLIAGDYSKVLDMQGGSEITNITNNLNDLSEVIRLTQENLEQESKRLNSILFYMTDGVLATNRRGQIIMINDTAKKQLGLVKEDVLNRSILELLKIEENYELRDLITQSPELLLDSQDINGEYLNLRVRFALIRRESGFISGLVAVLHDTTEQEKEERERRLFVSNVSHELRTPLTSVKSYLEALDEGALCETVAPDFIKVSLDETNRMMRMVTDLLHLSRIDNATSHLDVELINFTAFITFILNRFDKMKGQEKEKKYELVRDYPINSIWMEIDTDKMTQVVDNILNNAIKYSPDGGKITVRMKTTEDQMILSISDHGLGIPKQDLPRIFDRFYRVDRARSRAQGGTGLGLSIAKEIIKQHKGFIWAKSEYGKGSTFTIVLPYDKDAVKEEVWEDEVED
Description: The inhibitory activities of the Chinese medicine monomers for the ATPase activity of the full-length VicK protein were evaluated using the Kinase-Glo™Luminescent Kinase Assay (Promega, Madison, USA). Briefly, 6 μg VicK protein was pre-incubated with a series of dilution of compounds in the reaction buffer at 37°C for 30 min. 5 μM ATP was added and incubated for another 30 min. Kinase-Glo™Reagent was also added to detect the remaining ATP recorded from luminescence measurements (RLU). In parallel, the VicK protein with no addition of compounds was used as a control, and the mixture with compounds excluding the VicK protein served as another control. The rate of protein phosphorylation (Rp) inhibition by the compounds was calculated from Equation (1).
(1) Rp=1−RLU(compound+ATP+Reagent) −RLU(compound+ATP+vick+Reagent)/RLU(ATP +Reagent)−RLU(ATP+vick+Reagent)×100%
The half maximal inhibitory concentration (IC50), which is the concentration of inhibition of 50% VicK protein autophosphorylation, was determined by GraphPad Prism 5 (Qin et al., [2006]).

[10] = test system: S. mitis; assay: MIC against S. mitis; format: cell-based; conditions: Streptococcus mitis
Description: as §1

[11] = test system: Penicillin-resistant S. pneumoniae strains; assay: Checkerboard test with penicillin against penicillin-resistant S. pneumoniae; format: cell-based, Streptococcus pneumoniae; conditions: Streptococcus pneumoniae, agent alone
Description: as §1
The antimicrobial effects of different combinations of two antimicrobial agents were assayed using the checkerboard test (Bajaksouzian et al., [1997]). Each experiment was repeated thrice. The in vitro interaction between the five drugs with PEN was quantified by the fractional inhibitory concentration (FIC). The FIC index (FICI) was calculated using the following formula:
as §2, §3

[12] = in combination with Erythromycin
[13] = in combination with Tetracycline
[14] = Penicillin intermediate (n = 12)
[15] = read-out: IC50 (inhibition of VicK ATPase activity / autophosphorylation) (converted)
[16] = value in parentheses, read-out: IC50 (inhibition of VicK ATPase activity / autophosphorylation) (converted)
[17] = S. mutans clinical isolate, 10^6 CFU/ml, read-out: MIC
[18] = Penicillin intermediate (n = 12), read-out: MIC of pneumococcal strains, MIC50
[19] = Penicillin intermediate (n = 12), read-out: MIC of pneumococcal strains, MIC90
[20] = Penicillin resistant (n = 15), read-out: MIC of pneumococcal strains, MIC50
[21] = Penicillin resistant (n = 15), read-out: MIC of pneumococcal strains, MIC90
[22] = Penicillin susceptible (n = 7), read-out: MIC of pneumococcal strains, MIC50
[23] = Penicillin susceptible (n = 7), read-out: MIC of pneumococcal strains, MIC90
[24] = S. pseudopneumoniae clinical isolate, 10^6 CFU/ml, read-out: MIC
[25] = S. pneumoniae NCTC7466 (D39), read-out: MIC
[26] = S. pneumoniae NCTC7466 (D39), value in parentheses, read-out: MIC
[27] = S. pyogenes clinical isolate, 10^6 CFU/ml, read-out: MIC
[28] = S. mitis clinical isolate, 10^6 CFU/ml, read-out: MIC
[29] = strain 652336, read-out: MIC, Alone
[30] = strain 736007, read-out: MIC, Alone
[31] = strain 8364981, read-out: MIC, Alone
[32] = strain 12092624, read-out: MIC, Alone

Compound	FICI [3, 12]	FICI [3, 13]	CC50 at 48 h ([4]; Vero cells) [µM]	MIC of pneumococcal strains, Range [5, 14] [µg/mL]	MIC of pneumococcal strains, Range ([5]; Penicillin resistant (n = 15)) [µg/mL]	MIC of pneumococcal strains, Range ([5]; Penicillin susceptible (n = 7)) [µg/mL]	IC50 [9, 15] [µM]	IC50 [9, 16] [µM]	MIC [1, 17] [µg/mL]	Mean survival of mice ± SEM [2] [h]	MIC50 [5, 18] [µg/mL]	MIC90 [5, 19] [µg/mL]	MIC50 [5, 20] [µg/mL]	MIC90 [5, 21] [µg/mL]	MIC50 [5, 22] [µg/mL]	MIC90 [5, 23] [µg/mL]	MIC [6, 24] [µg/mL]	MIC [7, 25] [µg/mL]	MIC [7, 26] [µM]	MIC [8, 27] [µg/mL]	further results
COC1=CC(=O)O[C@@H](/C=C/c2ccc3c(c2)OCO3)C1 [Compound 4, Kavahin]	0.5	0.51	> 8000	68 to 518	68.5 to 548	34 to 272	4.6	4.56	–	–	–	–	–	–	–	–	–	–	–	–	MIC [1]: 274 µg/mL; Mean survival of mice ± SEM ([2]; listed as Kavahin): 71.1 ± 7.1 h; Mean survival of mice ± SEM ([2]; listed as kavahin): 71 h; Outcome [3, 12]: Synergy (=0.5, synergy); MIC50 ([5]; read-out: MIC of pneumococcal strains, MIC50, Penicillin intermediate (n = 12)): 137 µg/mL; MIC50 ([5]; read-out: MIC of pneumococcal strains, MIC50, Penicillin resistant (n = 15)): 274 µg/mL; MIC50 ([5]; read-out: MIC of pneumococcal strains, MIC50, Penicillin susceptible (n = 7)): 68.5 µg/mL; MIC90 ([5]; read-out: MIC of pneumococcal strains, MIC90, Penicillin intermediate (n = 12)): 274 µg/mL; MIC90 ([5]; read-out: MIC of pneumococcal strains, MIC90, Penicillin resistant (n = 15)): 548 µg/mL; MIC90 ([5]; read-out: MIC of pneumococcal strains, MIC90, Penicillin susceptible (n = 7)): 136 µg/mL; MIC [6]: 34 µg/mL; MIC ([7]; NCTC7466): 68.5 µg/mL and 250 µM; MIC [8]: 274 µg/mL; MIC [10]: 274 µg/mL; MIC ([11]; read-out: MIC, Alone, strain 652336): 548 µg/mL; MIC ([11]; read-out: MIC, Alone, strain 736007): 274 µg/mL; MIC ([11]; read-out: MIC, Alone, strain 8364981): 548 µg/mL; MIC ([11]; read-out: MIC, Alone, strain 12092624): 274 µg/mL
CSC[C@H]1O[C@@H](n2cnc3c(N)ncnc32)[C@H](O)[C@@H]1O [Compound 1, 5′-(Methylthio)-5′-deoxyadenosine]	2	0.9	–	74 to 594	296.8 to 593.6	74 to 148	3.8	3.77	594	49.5 ± 3.93	148	296	297	297	74	148	148	37.1	124	148	CC50 at 48 h ([4]; Vero cells (African green monkey kidney cells)): > 16000 µM; MIC [10, 28]: 148 µg/mL; MIC [11, 29]: 297 µg/mL; MIC [11, 30]: 297 µg/mL; MIC [11, 31]: 148 µg/mL; MIC [11, 32]: 297 µg/mL
CCCCCCCC=NNc1ccc([N+](=O)[O-])cc1[N+](=O)[O-] [Compound 2, Octanal 2,4-dinitrophenylhydrazone]	2	0.75	> 4000	38 to 154	77 to 616	76 to 152	–	–	616	42.1 ± 4.1	77	154	308	616	152	152	154	38.5	125	308	IC50 ([9]; IC50 (inhibition of VicK ATPase activity / autophosphorylation)): 5.4 µM; IC50 ([9]; IC50 (inhibition of VicK ATPase activity / autophosphorylation), value in parentheses): 5.35 µM; MIC [10, 28]: 308 µg/mL; MIC [11, 29]: 154 µg/mL; MIC [11, 30]: 154 µg/mL; MIC [11, 31]: 77 µg/mL; MIC [11, 32]: 154 µg/mL

Source: paper PMC4438233, “Antibacterial effects of Traditional Chinese Medicine monomers against Streptococcus pneumoniae via inhibiting pneumococcal histidine kinase (VicK)” (Frontiers in Microbiology, 2015)
